Here are results for 21 compounds from PubChem BioAssay AID248 (DTP/NCI, 2004).

Values joined by “and” are separate entries in the source; they are usually repeats but may differ in a detail not shown here. Equal entries are not always repeated. Toxic doses and inconclusive results are not listed.

The subject of this assay is L1210 leukemia ip in BDF1 mice, survival T/C. Nature of the assay: NCI In Vivo Anticancer Drug Screen. Data for tumor model L1210 Leukemia (intraperitoneal) in B6D2F1 (BDF1) mice. The conditions noted are these: endpoint: mean survival time, higher = longer survival. In outline:
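In this screen, tumor-bearing mice given compound are compared to those given vehicle, and their survival values are reported as a treated-to-control quotient.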

[1] abbreviates: dose: 100.0 mg/kg/injection, schedule: Q01DX001 (ip), vehicle: carboxymethylcellulose (CMC).
The mark [2] stands for this setting: dose: 200.0 mg/kg/injection, schedule: Q01DX001 (ip), vehicle: carboxymethylcellulose (CMC).
The mark [3] stands for this setting: dose: 400.0 mg/kg/injection, schedule: Q01DX001 (ip), vehicle: carboxymethylcellulose (CMC).
The mark [4] stands for this setting: dose: 100.0 mg/kg/injection, schedule: Q04DX003 (ip), vehicle: Klucel (hydroxypropylcellulose) (HPC).
Setting [5] is: dose: 200.0 mg/kg/injection, schedule: Q04DX003 (ip), vehicle: Klucel (hydroxypropylcellulose) (HPC).
Where [6] appears, read: dose: 400.0 mg/kg/injection, schedule: Q04DX003 (ip), vehicle: Klucel (hydroxypropylcellulose) (HPC).
Setting [7] is: dose: 100.0 mg/kg/injection, schedule: Q04DX002 (ip), vehicle: saline with Tween-80.
[8] abbreviates: dose: 200.0 mg/kg/injection, schedule: Q04DX002 (ip), vehicle: saline with Tween-80.
Where [9] appears, read: dose: 400.0 mg/kg/injection, schedule: Q04DX002 (ip), vehicle: saline with Tween-80.
Setting [10] is: dose: 100.0 mg/kg/injection, schedule: Q01DX001 (ip), vehicle: saline with Tween-80.
The mark [11] stands for this setting: dose: 100.0 mg/kg/injection, schedule: Q01DX009 (ip), vehicle: saline with Tween-80.
[12] abbreviates: dose: 200.0 mg/kg/injection, schedule: Q01DX001 (ip), vehicle: saline with Tween-80.
Setting [13] is: dose: 200.0 mg/kg/injection, schedule: Q01DX009 (ip), vehicle: saline with Tween-80.
Where [14] appears, read: dose: 400.0 mg/kg/injection, schedule: Q01DX001 (ip), vehicle: saline with Tween-80.
[15] abbreviates: dose: 400.0 mg/kg/injection, schedule: Q01DX009 (ip), vehicle: saline with Tween-80.
[16] abbreviates: dose: 50.0 mg/kg/injection, schedule: Q01DX009 (ip), vehicle: saline with Tween-80.

In the case of `CC(C)n1cnc2c(=S)nc[nH]c21`, the T/C by setting is: (dose: 3.12 mg/kg/injection, schedule: Q01DX Z (ip), vehicle: carboxymethylcellulose (CMC)) 106 % of control; (dose: 7.25 mg/kg/injection, schedule: Q01DX Z (ip), vehicle: carboxymethylcellulose (CMC)) 103 % of control; (dose: 7.25 mg/kg/injection, schedule: Q01DX Z (oral), vehicle: carboxymethylcellulose (CMC)) 110 % of control; (dose: 14.5 mg/kg/injection, schedule: Q01DX Z (ip), vehicle: carboxymethylcellulose (CMC)) 110 % of control; (dose: 14.5 mg/kg/injection, schedule: Q01DX Z (oral), vehicle: carboxymethylcellulose (CMC)) 118 % of control; (dose: 29.0 mg/kg/injection, schedule: Q01DX Z (ip), vehicle: carboxymethylcellulose (CMC)) 116 % of control. The T/C runs as follows: (dose: 58.0 mg/kg/injection, schedule: Q01DX Z (oral), vehicle: carboxymethylcellulose (CMC)) 152 % of control; (dose: 210.0 mg/kg/injection, schedule: Q01DX Z (ip), vehicle: carboxymethylcellulose (CMC)) 90 % of control.

Take `C=CCSc1nc2c(N)ncnc2n1C1OC(CO)C(O)C1O` (configuration not stated): the T/C runs as follows: (dose: 100.0 mg/kg/injection, schedule: Q01DX005 (ip), vehicle: saline) 103 % of control; (dose: 200.0 mg/kg/injection, schedule: Q01DX005 (ip), vehicle: saline) 98 % of control.

Turning to `C[Si](C)O[Si](C)C`, the T/C (dose: 100.0 mg/kg/injection, schedule: Q04DX003 (ip), vehicle: saline) is 91 % of control; the T/C (dose: 200.0 mg/kg/injection, schedule: Q04DX003 (ip), vehicle: saline) was 101 % of control; the T/C (dose: 400.0 mg/kg/injection, schedule: Q04DX003 (ip), vehicle: saline) was 101 % of control.

Take `CC(=O)OC1CC2CC(C1)C(C#N)C(=O)NC(=O)C2C#N` (configuration not stated): the T/C under setting [1] was 102 % of control, the T/C under setting [2] was 96 % of control and the T/C under setting [3] was 92 % of control.

Turning to `Cn1c(=O)c2c(nc(OCCC3CCCCC3)n2C)n(C)c1=O`, the T/C runs as follows: (dose: 50.0 mg/kg/injection, schedule: Q01DX001 (ip), vehicle: other) 90 % of control; (dose: 100.0 mg/kg/injection, schedule: Q01DX001 (ip), vehicle: other) 95 % of control; (dose: 200.0 mg/kg/injection, schedule: Q01DX001 (ip), vehicle: other) 90 % of control; (dose: 400.0 mg/kg/injection, schedule: Q01DX001 (ip), vehicle: other) 93 % of control.

For the compound `Nc1ccc(S(=O)(=O)Nc2ccc(C(=O)O)cc2)cc1`, the T/C is 98 % of control (dose: 100.0 mg/kg/injection, schedule: Q04DX003 (ip), vehicle: saline with Tween-80); 98 % of control (dose: 200.0 mg/kg/injection, schedule: Q04DX003 (ip), vehicle: saline with Tween-80); 98 % of control (dose: 400.0 mg/kg/injection, schedule: Q04DX003 (ip), vehicle: saline with Tween-80).

Consider `O=C(CCCc1ccc(N(CCCl)CCCl)cc1)NCc1ccccc1`, for which the T/C reads like this: (dose: 4.0 mg/kg/injection, schedule: Q12HX018 (ip), vehicle: other) 112 % of control; (dose: 6.0 mg/kg/injection, schedule: Q12HX018 (ip), vehicle: other) 103 % of control; (dose: 8.0 mg/kg/injection, schedule: Q12HX018 (ip), vehicle: other) 108 % of control.

Consider `Cc1ccc(NC(=O)c2ccc(Cl)cc2)cc1Cl`, for which the T/C (dose: 100.0 mg/kg/injection, schedule: Q01DX009 (ip), vehicle: Klucel (hydroxypropylcellulose) (HPC)) is 105 % of control; the T/C under setting [4] is 94 % of control; the T/C (dose: 200.0 mg/kg/injection, schedule: Q01DX009 (ip), vehicle: Klucel (hydroxypropylcellulose) (HPC)) was 98 % of control; the T/C under setting [5] is 94 % of control; the T/C (dose: 400.0 mg/kg/injection, schedule: Q01DX009 (ip), vehicle: Klucel (hydroxypropylcellulose) (HPC)) is 92 % of control; the T/C under setting [6] is 104 % of control.

Consider `CCOC(=O)c1cc(/C=C/C=O)oc1N`, for which the T/C by setting is: under setting [7], 106 % of control; under setting [8], 101 % of control; under setting [9], 97 % of control.

On to `COc1ccccc1-n1c(O)c(N=Nc2ccc(C)cc2)c(=O)n(-c2ccc(Cl)cc2)c1=S`, for which the T/C by setting is: (dose: 100.0 mg/kg/injection, schedule: Q01DX001 (ip), vehicle: Klucel (hydroxypropylcellulose) (HPC)) 106 % of control; (dose: 200.0 mg/kg/injection, schedule: Q01DX001 (ip), vehicle: Klucel (hydroxypropylcellulose) (HPC)) 100 % of control.

For the compound `O=P(OCC(Br)CBr)(OCC(Br)CBr)OCC(Br)CBr` (configuration not stated), the T/C reads like this: (dose: 50.0 mg/kg/injection, schedule: Q04DX003 (ip), vehicle: Klucel (hydroxypropylcellulose) (HPC)) 107 % of control; under setting [4], 98 % of control; under setting [5], 106 % of control; under setting [6], 106 % of control.

For `C=CCc1ccc(OC(=O)Nc2cc(Cl)ccc2OC)c(OC)c1`, the T/C is 102 % of control under setting [10]; 90 % of control under setting [11]; 101 % of control and 91 % of control under setting [7]; 90 % of control under setting [12]; 96 % of control under setting [13]; 95 % of control under setting [8]. The T/C was 90 % of control under setting [14]; 95 % of control under setting [15]; 87 % of control and 90 % of control under setting [9].

`Cc1ccc(N=Nc2ccc(C)cc2NC(=O)Nc2cc(C)ccc2C)cc1`: the T/C reads like this: under setting [10], 102 % of control; under setting [11], 98 % of control; under setting [7], 87 % of control and 89 % of control; under setting [12], 109 % of control; under setting [13], 106 % of control; under setting [8], 91 % of control. Moreover, the T/C was 90 % of control under setting [14]; 102 % of control under setting [15]; 95 % of control and 89 % of control under setting [9].

Consider `Cc1ccccc1NC(=O)NCCBr`, for which the T/C under setting [16] was 95 % of control and the T/C under setting [11] is 95 % of control.

For the compound `CCOC(=O)C1=C(C)NC(C)=C(C(=O)OCC)C1c1cccc([N+](=O)[O-])c1`, the T/C under setting [4] was 100 % of control, the T/C under setting [5] is 105 % of control and the T/C under setting [6] was 108 % of control.

On to `Oc1ccccc1C=Nc1ccc(N=Cc2ccccc2O)cc1`, for which the T/C reads like this: (dose: 100.0 mg/kg/injection, schedule: Q01DX001 (ip), vehicle: saline) 101 % of control; (dose: 200.0 mg/kg/injection, schedule: Q01DX001 (ip), vehicle: saline) 95 % of control; (dose: 400.0 mg/kg/injection, schedule: Q01DX001 (ip), vehicle: saline) 106 % of control.

As to `Oc1[nH]c(=S)sc1/C=C1\C=Nc2ccccc21`, the T/C (dose: 50.0 mg/kg/injection, schedule: Q01DX001 (ip), vehicle: carboxymethylcellulose (CMC)) was 90 % of control; the T/C under setting [1] is 92 % of control; the T/C under setting [2] was 90 % of control; the T/C under setting [3] was 90 % of control.

As to `COc1ccc(C(=O)OCc2ccccc2CN2CCOCC2)cc1`, the T/C (dose: 100.0 mg/kg/injection, schedule: Q04DX002 (ip), vehicle: Klucel (hydroxypropylcellulose) (HPC)) is 95 % of control; the T/C (dose: 200.0 mg/kg/injection, schedule: Q04DX002 (ip), vehicle: Klucel (hydroxypropylcellulose) (HPC)) was 95 % of control; the T/C (dose: 400.0 mg/kg/injection, schedule: Q04DX002 (ip), vehicle: Klucel (hydroxypropylcellulose) (HPC)) was 95 % of control.

As for `CNCCC(=O)c1ccccc1`, the T/C under setting [4] is 99 % of control and the T/C under setting [5] is 99 % of control.

As for `CS(=O)(=O)c1ccc(C(=N)N)cc1`, the T/C by setting is: (dose: 100.0 mg/kg/injection, schedule: Q01DX009 (ip), vehicle: saline) 93 % of control; (dose: 200.0 mg/kg/injection, schedule: Q01DX009 (ip), vehicle: saline) 97 % of control; (dose: 400.0 mg/kg/injection, schedule: Q01DX009 (ip), vehicle: saline) 95 % of control.

`Nc1nccc(Cl)n1`: the T/C runs as follows: (dose: 12.5 mg/kg/injection, schedule: Q01DX009 (ip), vehicle: saline with Tween-80) 89 % of control; (dose: 25.0 mg/kg/injection, schedule: Q01DX009 (ip), vehicle: saline with Tween-80) 92 % of control; under setting [16], 92 % of control.
